# Measurements: patent US20240325375A1, “Effect of YEL002 on Psychological and Psychiatric Factors in Health and Disease” (RadMit, Inc., priority 2023, published 2024)
# Legend:
# [1] = tested on: irradiated mice; assay: Radiation mitigation in mice irradiated with an LD100; format: in vivo
# [2] = tested on: ATM-deficient mice; assay: Lifespan of ATM-deficient mice injected weekly; format: in vivo; details: ATM-deficient mice injected every week during most of their lifespans
# Source text: It is speculated that this is because the primary screen applied was against radiation-induced toxicity as well as genotoxicity which causes cancer. Researchers involved in other labs were screening only against radiation-induced toxicity and thereby cells with genotoxicity survive and cause even more cancer and late effects of which surviving mice died. In our experiments, however, a screen against radiation induced toxicity as well as genetic instability made sure that the surviving cells also had no genetic instability which otherwise would have led to an increase in cancer and other diseases. In the experiment, ATM-deficient mice injected every week with YEL002 during most of their lifespans lived 33% longer than without injections.
# [3] = tested on: lymphoma; assay: Lymphoma incidence in mice (National Institute of Health experiment); format: in vivo; details: radiation exposure caused 90% to develop lymphoma without treatment
# Method: In another experiment at the National Institute of Health, in other mice after radiation exposure which caused 90% of them to develop lymphoma, there was a reduction of the lymphoma incidence to 40% and the spontaneous frequency was reduced from 10-20% down to 0%. […] This was observed after treating mice right after birth, if humans are treated later in life it is possible that only 10 or 5 years are added and probably more for DNA repair deficient diseases like ataxia telangiectasia (ATM) which is still very substantial, especially, since it treats and reduces the likelihood of many diseases.
# [4] = tested on: three different cancer cell lines; assay: Radiation killing of cancer cell lines; format: cell-based
# Source text: (§1) It is also observed that three different cancer cell lines were not protected from radiation killing by YEL002, which indicates a use in radiation oncology or chemotherapy where the tumor can still be killed by the radiation, or chemotherapy but YEL002 protects the rest of the body from radiation or chemotherapy damage, and inhibits secondary carcinogenesis.
# [5] = tested on: human keratinocytes; assay: Proteomics study of protein induction; format: cell-based
# Source text: In terms of mechanism of action in a proteomics study, the chemical was capable of inducing 244 different proteins in human keratinocytes, which comprised anti-inflammatory proteins, DNA repair proteins, and 9 neuroprotective proteins. It is known that turtles at the Galapagos Islands live 150 or more years without cancer and have multiple copies of DNA repair genes and anti-inflammatory genes. The compound boosts the expression of these genes in mammals. Since it induces DNA repair and is anti-inflammatory, it may be possible to prevent and cure many diseases and extend the life.
# A direct effect of YEL002 on the autonomic or sympathetic nervous system, the flight or fight response, which can explain all the effects that we find.
# [6] = Clinical trial on psychological, psychiatric and memory loss endpoints; format: in vivo, human
# Source text: 7 less argumentative, 10 less angry or aggressive. 8 experienced better quality sleep. 8 needed less sleep and 5 became nicer. It gets rid of addictions and reduces symptoms of depression and Alzheimer's disease.
# [7] = PHQ-9 assessment of a patient with recalcitrant depression; format: in vivo, human
# Method: If they work at all, improvements take at least 4 weeks and may increase patient weight. In this patient's assessment using a standard PHQ-9 form, the patient was assessed before and after treatment with YEL002. The PHQ-9 form assigns a numerical value corresponding to the level of depression, meaning a higher level means increased depression values. In this patient, before treatment, the values was in 3 different instances 6, 9 and 15 with designation of “very difficult” and “extremely difficult” and they cried 3 times during 30 minutes of our interview and said they hate the world. Before the test indicates mild depression to moderately severe depression. […] Since there is no lower designation this indicates no depression. This is also called snapping out of depression, which was a technical term in the past because it was not observed before now.
# [8] = tested on: Covid virus; format: in vivo; details: compared with without YEL002
# [9] = Case studies and patient testimonials; format: in vivo, human
# [10] = Effects on pets (cats); format: in vivo; details: cats after treatment
# Method: Effects on pets. My cats, Susie and Celine were the sweetest cats before I started to treat them. But after treatment they are now even sweeter, cuddlier and more attached to me, and sleep 2 hours longer per day. I call them lap cats now like the dog pendant. They lost loofiness, shyness to new visitors, quietly sit next to each other and licking each other or me and just want to sit close to me or on my lap and be petted. Before after 5 to 10 minutes of petting they just left and did something else. Now they stay for hours and the only reason for them to leave is when I stop petting them. And they are even better at play and jump exactly, landing where they intend to, don't bump into things and catch the toys the first time every time.
# [11] = Solubility of the powder; format: physicochemical; details: off-white powder
# Method: The compound takes the appearance of an off-white powder and is fat soluble. One takes an eighth teaspoon or about 0.5 g dissolved in a couple of teaspoons of oil. In an exemplary embodiment, it is dissolved in grape seed or any other appropriate oil and taken twice a day, once in the morning and once in the evening. It is easy to use and has almost no taste.
# [12] = Side effects and blood thinning; format: in vivo
# Method: Thus, if nose bleeding occurs at that dose when blowing one's nose, one should reduce the dose to half and nose bleeding will stop within about 12 hours or less. Once the flue or sneezing is gone one may increase the dose again.
# as §1
# [13] = heavy smoker, one week after treatment
# [14] = subject on chemotherapy, one week on YEL002
smiles,measurement,setting,value
COc1ccc2cc(-c3nc4ccc(C)cn4c3NCc3ccco3)c(=O)[nH]c2c1 [YEL002],survival of irradiated mice,"[1]; LD100 radiation, IP injection 24 hours after radiation and another four doses in 24 hours intervals, without it 100% died after 10 to 15 days",100%
same,life span of surviving irradiated mice,"[1]; many of the surviving mice, normal life span",more than 2 years
same,lived longer than without injections,[2],33%
same,lymphoma incidence after radiation exposure,[3],40%
same,protection of cancer cell lines from radiation killing,[4],not protected
same,number of different proteins induced,"[5]; human keratinocytes, anti-inflammatory, DNA repair and neuroprotective proteins",244 proteins
same,number of neuroprotective proteins/functions induced,[5]; proteomics,9
same,became nicer,[6],5 people
same,experienced better quality sleep,[6],8 people
same,felt more energetic,[6],10 people
same,less angry or aggressive,[6],10 people
same,less argumentative,[6],7 people
same,less combative,[6],7 people
same,less tired,[6],5 people
same,needed less sleep,[6],8 people
same,PHQ-9 value after treatment,"[7]; after one week on YEL002, the following two weeks, before treatment 6, 9 and 15",3
same,PHQ-9 difficulty designation after treatment,[7]; before treatment very difficult and extremely difficult,somewhat difficult
same,recalcitrant depression outcome,"[7]; person with depression for 20 years, within one week",completely cured
same,clearance of Covid virus,[8],cleared faster
same,memory of patient with Alzheimer's disease,[9]; after 4 weeks treatment,improved
same,cholesterol,[9]; after two days of treatment,normal
same,symptoms of coughing and diarrhea,"[9]; case study, used for eight weeks",reduced symptoms of coughing and diarrhea
same,allergic attacks such as sneezing and runny nose,"[9]; dissolved in oil, nose spray 2-4 times a day",completely prevented
same,hair loss,[9]; [13],completely stopped
same,smoker's legs oozing lymph liquid,[9]; [13],completely healed
same,astigmatism fixed,[9]; in only 4 weeks,1
same,eye-sight deficiency fixed,[9]; in only 4 weeks,2 diopters
same,coughing and wheezing symptoms post-chemotherapy,[9]; one hour after treatment,completely alleviated
same,blood,[9]; patient testimonial,thinner
same,major arguments with spouse,"[9]; patient with long COVID19 and diabetes, 5-10 before treatment",0-1 per day
same,memory of another person,[9]; remembers where they left their car,much improved
same,vomiting under chemotherapy,[9]; [14],completely stopped
same,weight gained,[9]; [14],2 kg
same,levels of liver damage,"[9]; twice elevated for 25 years, after two days of treatment",normal and below the cutoff
same,alcohol addiction,[9]; two alcoholics,completely cured
same,periodontics or receding gums,[9]; user study,healed
same,cats sleep longer,[10],2 hours per day
same,solubility,[11],fat soluble
same,blood-thinning; nose bleeding at the dose,"[12]; about 1 gram per day, nose bleeding stops within about 12 hours or less at half dose",blood-thinning properties
same,side effects,[12]; in vivo,no side effects
